In article PMC11432087, “Hydrogen Sulfide-Releasing Carbonic Anhydrase Inhibitors Effectively Suppress Cancer Cell Growth” (International Journal of Molecular Sciences, 2024):
Like-named read-outs stand apart in the source and are kept apart here.

How the values were obtained:
[1] = test system: hCA IX; test: Stopped-flow CO2 hydrase inhibition assay, hCA IX; assay type: biochemical, human; conditions: ratio of KIs
Procedure: (§1) An Applied Photophysics stopped-flow instrument (Applied Photophysics Ltd, Leatherhead, UK) was used for assaying the CA-catalyzed CO2 hydration activity. Phenol red (at a concentration of 0.2 mM) was used as an indicator, working at the absorbance maximum of 557 nm, with 20 mM Hepes (pH 7.5) as a buffer and 20 mM Na2SO4 for maintaining constant the ionic strength, following the initial rates of the CA-catalyzed CO2 hydration reaction for a period of 10−100 s. The CO2 concentrations ranged from 1.7 to 17 mM for the determination of the kinetic parameters and inhibition constants. For each inhibitor, at least six traces of the initial 5−10% of the reaction were used for determining the initial velocity. The uncatalyzed rates were determined in the same manner and subtracted from the total observed rates. Stock solutions of inhibitor (0.1 mM) were prepared in distilled−deionized water and dilutions up to 0.01 nM were made thereafter with the assay buffer. Inhibitor and enzyme solutions were preincubated together for 15 min at room temperature before the assay to allow for the formation of the E−I complex. The inhibition constants were obtained by nonlinear least-squares methods using Prism 7 (GraphPad Software, La Jolla, CA, USA) and the Cheng−Prusoff equation and represent the mean of at least three different determinations. The enzyme concentrations were in the range of 3–11 nM. All hCA isoforms were recombinant ones obtained in-house.

[2] = test system: hCA XII; test: Stopped-flow CO2 hydrase inhibition assay, hCA XII; assay type: biochemical, human; conditions: ratio of KIs
Procedure: as §1

[3] = test system: MDA-MB-231; test: MTT antiproliferative assay, MDA-MB-231; assay type: cell-based; conditions: Homo sapiens, normoxic conditions, 72 h
Procedure: (§2) These cell lines were cultured as monolayers in Dulbecco’s Modified Eagle’s Medium (DMEM) supplemented with 10% FBS, 2 mM l-glutamine, 100 U/mL penicillin, and 100 µg/mL streptomycin sulfate. […] The cells were sub-cultured using trypsin/EDTA solution, counted with a hemocytometer, and plated on 96-well plates (5000 cells/well), allowing them to form a semi-confluent monolayer overnight. […] DMSO (100 µL/well) was then added to dissolve the formazan crystals with shaking for 10 min, after which the absorb absorbance was read at 590 nm against no-cell blanks using a FLuo Star Optima microplate reader (BMG technologies, Ortenberg, Germany). Cell proliferation was calculated by comparing the OD values of the DMSO control wells with those of the samples, represented as % proliferation relative to the control.

[4] = test system: HCT-116; test: MTT antiproliferative assay, HCT-116 (normoxia and CoCl2-induced hypoxia); assay type: cell-based, human; conditions: HCT-116; for IC50: Homo sapiens, MTT, 72 h
Procedure: as §2

[5] = test system: A549; test: MTT antiproliferative assay, A549; assay type: cell-based; conditions: Homo sapiens, normoxic conditions, 72 h
Procedure: The human triple-negative breast cancer cell line (MDA-MB-231), colon cancer cell line (HCT-116), and lung cancer cell line (A549) used in this study were obtained from the American Type Culture Collection (ATCC). These cell lines were cultured as monolayers in Dulbecco’s Modified Eagle’s Medium (DMEM) supplemented with 10% FBS, 2 mM l-glutamine, 100 U/mL penicillin, and 100 µg/mL streptomycin sulfate. […] The cells were sub-cultured using trypsin/EDTA solution, counted with a hemocytometer, and plated on 96-well plates (5000 cells/well), allowing them to form a semi-confluent monolayer overnight. […]. DMSO (100 µL/well) was then added to dissolve the formazan crystals with shaking for 10 min, after which the absorb absorbance was read at 590 nm against no-cell blanks using a FLuo Star Optima microplate reader (BMG technologies, Ortenberg, Germany). Cell proliferation was calculated by comparing the OD values of the DMSO control wells with those of the samples, represented as % proliferation relative to the control.

[6] = test system: HCT-116; test: Cell cycle analysis by DNA flow cytometry, HCT-116; assay type: cell-based, human; conditions: HCT-116, 24 h at IC50 concentration
Procedure: (§3) Following treatment, cells were washed twice with ice-cold phosphate-buffered saline (PBS). Subsequently, the treated cells were harvested through centrifugation, fixed in ice-cold 70% (v/v) ethanol, washed with PBS, re-suspended in 100 μg/mL RNase, stained with 40 μg/mL propidium iodide (PI), and subjected to flow cytometry analysis using FACS Calibur (Becton Dickinson, Franklin Lakes, NJ, USA). The cell cycle distributions were calculated using CellQuest software 5.1 (Becton Dickinson).

[7] = test system: A549; test: Cell cycle analysis by DNA flow cytometry, A549; assay type: cell-based, human; conditions: A549, 24 h at IC50 concentration
Procedure: as §3

[8] = test system: HCT-116; test: Annexin V-FITC/PI dual staining apoptosis assay, HCT-116; assay type: cell-based, human; conditions: for Fold increase in overall apoptosis compared to untreated control: HCT-116; for Early Apoptosis (Lower Right %) / Late Apoptosis (Upper Right %) / Total apoptosis: HCT-116, treated at IC50 concentration
Procedure: (§4) Phosphatidylserine externalization was evaluated using the Annexin V-FITC/PI apoptosis detection kit (BD Biosciences, USA), following the manufacturer’s guidelines. […] Subsequently, the cells were re-suspended in 100 μL of binding buffer with the addition of 1 μL of FITC-Annexin V, followed by a 30-min incubation at 4 °C. After rinsing in binding buffer, the cells were resuspended in 150 μL of binding buffer with the addition of 1 μL of DAPI (1 μg/μL in PBS). Flow cytometry analysis was performed using the BD FACS Canto II flow cytometer and the results were interpreted with FlowJo7.6.4 software (Tree Star, Ashland, USA).

[9] = test system: A549; test: Annexin V-FITC/PI dual staining apoptosis assay, A549; assay type: cell-based, human; conditions: for Fold increase in overall apoptosis compared to untreated control: A549; for Early Apoptosis (Lower Right %) / Late Apoptosis (Upper Right %) / Total apoptosis: A549, treated at IC50 concentration
Procedure: as §4

[10] = target: hCA I; conditions: stopped-flow CO2 hydrase assay, mean of three assays; cited from earlier work
[11] = target: hCA II; conditions: stopped-flow CO2 hydrase assay, mean of three assays; cited from earlier work
[12] = target: hCA IX; conditions: stopped-flow CO2 hydrase assay, mean of three assays; cited from earlier work
[13] = target: hCA XII; conditions: stopped-flow CO2 hydrase assay, mean of three assays; cited from earlier work
[14] = target: hCA IV; conditions: stopped-flow CO2 hydrase assay, mean of three assays; cited from earlier work
[15] = compound 150 µM, rat liver homogenate, 37 °C; cited from earlier work
[16] = chemically induced hypoxia with CoCl2·6H2O, read-out: IC50 HCT-116 (Hypoxia)
[17] = normoxic conditions, read-out: IC50 HCT-116 (Normoxia)

Row | Compound | hCA II/hCA IX selectivity ratio [1] | hCA II/hCA XII selectivity ratio [2] | IC50 [3] [µM] | IC50 Normoxia / IC50 Hypoxia [4] | IC50 [4, 16] [µM] | IC50 [4, 17] [µM] | IC50 [5] [µM] | %G0-G1 [6] [%] | %G2/M [6] [%] | %S [6] [%] | %Sub-G1 [6] [%] | %G0-G1 [7] [%] | %G2/M [7] [%] | %S [7] [%] | %Sub-G1 [7] [%] | Fold increase in overall apoptosis compared to untreated control [8] [fold] | Early Apoptosis (Lower Right %) [8] [%] | Late Apoptosis (Upper Right %) [8] [%] | Total apoptosis [8] [%] | Fold increase in overall apoptosis compared to untreated control [9] [fold] | further results
1 | N#Cc1ccc(CN(CCc2ccc(S(N)(=O)=O)cc2)C(=O)c2ccc(-c3cssc3=S)cc2)cc1 [Compound 23] | 120 | 548 | 1.53 ± 0.04 | 0.3 | 4.27 ± 0.08 | 1.24 ± 0.04 | 4.53 ± 0.12 | 20.35 | 32.2 | 23.29 | 24.16 | 29.65 | 28.09 | 26.28 | 15.98 | 37.2 | 7.69 | 21.33 | 29.02 | 14.2 | Early Apoptosis (Lower Right %) [9]: 6.91%; Late Apoptosis (Upper Right %) [9]: 10.13%; Total apoptosis [9]: 17.04%; Ki [10]: > 10 µM; Ki [11]: 4.83 µM; Ki [12]: 0.0403 µM; Ki [13]: 0.0088 µM
2 | COc1cc([N+](=O)[O-])ccc1CN(CCc1ccc(S(N)(=O)=O)cc1)C(=O)c1ccc(-c2cssc2=S)cc1 [Compound 26] | 719 | 383 | 10.4 ± 0.61 | 0.6 | 3.73 ± 0.07 | 2.3 ± 0.072 | 7.47 ± 0.31 | 27.14 | 30.29 | 24.13 | 18.44 | 29.49 | 33.05 | 22.54 | 14.92 | 24.5 | 4.13 | 14.96 | 19.09 | 13.1 | Early Apoptosis (Lower Right %) [9]: 6.47%; Late Apoptosis (Upper Right %) [9]: 9.3%; Total apoptosis [9]: 15.77%; Ki [10]: 6.7 µM; Ki [11]: 2.95 µM; Ki [14]: 4.09 µM; Ki [12]: 0.0041 µM; Ki [13]: 0.0077 µM; H2S release half-life t/2 [15]: 4.9 min
